Test results published in patent US12226386B2, “Compositions and methods for treating biofilms” (The Regents of the University of California, priority 2018, dated 2025).

System: S. aureus (MRSA) biofilms
Assay: in vitro sustained inhibition biofilm assay, bacterial
Format: cell-based, Staphylococcus aureus
Protocol: In vitro biofilm formation was tested using two assays, sustained inhibition and disruption. Both assays assess biofilm formed on polystyrene plates. The first, tests the effects of amino acid solution on a developing biofilm, while the latter tests the effects of the solution on a pre-formed mature biofilm, both compared to media without supplemented amino acids.
Other amino acids in the blood of animals could combat bacterial and fungal biofilm and therefore may be useful in treating these bacterial and fungal infections that would lie on the external surfaces of infected animals such as humans and could also be used to combat these pathogens on instruments and surfaces that need to be treated. Two types of biofilm assays were performed: a sustained inhibition assay and a disruption assay. The sustained inhibition assay assessed the compound's ability to prevent biofilm development throughout all stages of biofilm formation, while the disruption assay assessed the compound's ability to break up an existing mature biofilm.
For fungal biofilm assays, all solutions were prepared in RPMI 1640 medium. All bacterial biofilm solutions were prepared in Tryptic Soy Broth (TSB), supplemented with 1% glucose (henceforth referred to as TSB-G). All subsequent procedures were performed in a manner that maintained sterility. A solution of each amino acid to be tested was prepared in weight to volume concentrations ranging from 0.1-5.0%. Amino acids were also tested in combinations. Compound solutions were homogenized with gentle agitation in the dark (4° C., 24 hours) before use.
Bacterial strains were streaked on Blood Agar plates (5% sheep blood in Tryptic Soy Agar) and incubated at 37° C. for 24 hours. A single colony from each strain to be tested was inoculated in a TSB broth and grown for 12 hours, at 37° C. shaking at 225 rpm. For the bacterial biofilm inhibition assays, 1 μL of saturated overnight cell culture was added to either 80 μL of TSB-G, or TSB-G supplemented with the amino acid compound solution to be tested, in a 384-well plate. The cells were allowed to adhere to the plate for 60 minutes at 37° C. without shaking. The media was carefully aspirated and 80 μL of TSB-G, or TSB-G supplemented with the amino acid compound solution was added to the plate. The plate was further incubated for 24 hours at 37° C. without shaking. Media was carefully aspirated and the biofilm was measured by optical density at 600 nm. Eight or twelve replicates were performed for each tested condition and the reported values are normalized to the control (TSB-G media only). For the bacterial biofilm disruption assays, 80 μL of TSB-G was added to the plate, along with 1 μL of overnight cell culture. The cells were allowed to adhere to the plate for 60 minutes at 37° C. with no shaking. The media was carefully aspirated and 80 μL of TSB-G was added to the plate. The plate was further incubated for 24 hours at 37° C. with no shaking. Media was carefully aspirated from the mature biofilm and 80 μL of TSB-G, or TSB-G supplemented with the amino acid to be tested, was gently added to the plate. The plate was further incubated for 24 hours at 37° C. without shaking. Media was aspirated and the biofilm was measured by optical density at 600 nm. Twelve replicates were performed for each tested condition and the reported values are normalized to the control (TSB-G media only).
For inhibition assay, 1 μl of overnight cell culture was added to either 80 μl of TSB-G, or TSB-G supplemented with the amino acid to be tested, in a 384-well plate. The cells were allowed to adhere to the plate for 60 minutes at 37° C. with no shaking. The media was carefully aspirated and 80 μl of TSB-G, or TSB-G supplemented with amino acid was added to the plate. The plate was further incubated for 24 hours at 37° C. with no shaking. Media was carefully aspirated and the biofilm was measured by optical density at 600 nm. […]

[1] = sustained inhibition, S. aureus, 1% amino acid, p<0.001

N[C@@H](CC(=O)O)C(=O)O [Aspartic Acid, L-aspartic acid]
Reduce B Biofilm [1]: ●● (two dots [i.e. ●●] signifies major effect (greater than about 30% change))

N[C@@H](CS)C(=O)O [Cysteine, L-cysteine]
Reduce B Biofilm [1]: ●● (two dots [i.e. ●●] signifies major effect (greater than about 30% change))

N[C@@H](CCC(=O)O)C(=O)O [Glutamic Acid, L-glutamic acid]
Reduce B Biofilm (MRSA): ●● (two dots [i.e. ●●] signifies major effect (greater than about 30% change))
